Results from publication PMC4153677, “Probing the Activity Modification Space of the Cysteine Peptidase Cathepsin K with Novel Allosteric Modifiers” (PLoS ONE, 2014).

Columns and labels:
[1] = biological target: T1, Recombinant human cathepsin K (Homo sapiens, UniProt P43235); experiment: Kinetic measurements, hydrolysis of the fluorogenic substrate Z-FR↓AMC (general modifier mechanism); type: biochemical; parameters: key to α (coefficient, effect of modifier on the affinity for the substrate) / β (coefficient, effect of modifier on the catalytic rate): dimensionless coefficients multiplying KS (α) and kcat (β)
T1 construct: made in house
T1 sequence (P43235 115-329): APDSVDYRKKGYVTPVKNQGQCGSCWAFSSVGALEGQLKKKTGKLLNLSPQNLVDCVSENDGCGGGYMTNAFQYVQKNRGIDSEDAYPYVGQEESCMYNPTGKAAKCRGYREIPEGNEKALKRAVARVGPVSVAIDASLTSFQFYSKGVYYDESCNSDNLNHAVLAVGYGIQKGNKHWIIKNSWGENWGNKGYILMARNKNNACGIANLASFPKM
Protocol: All modifiers were tested for their effect on the hydrolysis of the low molecular mass synthetic substrate Z-FR↓AMC. Since all progress curves were linear from the beginning of the reaction, initial velocities were calculated from the slopes by linear regression. […] The basic mechanism considered for the analysis of the interactions was the general modifier mechanism shown in Figure 2, in which the effect of modifier is determined by the values of the coefficients α and β that multiply the kinetic parameters K S, K A (α) and k cat (β). In the thermodynamic box embodied in Figure 2, the reciprocal of the coefficient α represents the allosteric coupling constant that characterizes energy linkage between the modifier and the substrate, while a […] represents the effect exerted by the modifier on catalysis. The specific velocity plot was used for the primary screening of the kinetic behavior of the modifiers (Equation 2), as it allows an immediate judgment of the type of interaction and to gather preliminary estimates of the coefficients α and β, as well as of the dissociation constant of the modifier. Refinement was then performed by fitting the rate Equation 1 to data.
Figure 3 Kinetic mechanisms of the identified modifiers. All compounds were characterized by a combination of specific velocity plots (upper panels) and titration curves recorded at fixed substrate concentrations (lower panels). All experiments were performed at 25±1°C in 100 mM sodium acetate buffer pH 5.50 containing 1 mM EDTA and 2.5 mM DTT using the fluorogenic substrate Z-FR↓AMC and at a final enzyme concentration of 0.5 nM.
All kinetic measurements were performed in 100 mM sodium acetate buffer pH 5.50 containing 1 mM EDTA and 2.5 mM dithiothreitol (DTT) in single-use acrylic cuvettes (1×1 cm) thermostatted at 25±1°C with magnetic stirring. The hydrolysis of Z-FR↓AMC was followed fluorometrically at λex 383 nm and λem 455 nm. All tested modifiers were analyzed spectroscopically to determine their absorption properties under the conditions used in the assays. When necessary, appropriate corrections were made to the calculated reaction rates to take into account the inner filter effect.
The effects of the modifiers on enzymatic activity were analyzed with the general modifier mechanism which describes the interaction between enzyme (E), substrate (S) and modifier (A), as shown in Figure 2. Assuming that binding of A to E and ES is at quasi-equilibrium and that steady-state conditions are established in the fluxes around ES and ESA (i.e. the catalytic steps), the reaction rate for the mechanism in Figure 2 is defined by Equation 1: [drawing 2] (1) where v 0 is the reaction rate in the absence of modifier, K A is the equilibrium dissociation constant of the EA complex, α and β are dimensionless coefficients and σ = [S]/K m, approximated to [S]/K s. To determine the mechanism of interaction, plot the kinetic data and calculate preliminary values of the interaction parameters, the specific velocity plot was used. For this purpose, Equation 1 is rewritten as:
The plot of v 0/v A versus σ/(1+σ) produces straight lines with intersection points at v 0/v A = 1, regardless of the interaction mechanism. The parameters α, β and K A are determined by replotting the extrapolated values of the straight lines at σ/(1+σ) = 0 (a) and σ/(1+σ) = 1 (b) versus 1/[A] in the form: [drawing 4] (3) [drawing 5] (4)

[2] = biological target: T1, Recombinant human cathepsin K; experiment: Azocasein degradation assays; type: biochemical; settings: pH 5.5; substrate azocasein 3 mg/ml; 0.1 µM cathepsin K, 30 min 37°C, pH 5.50; compounds up to 2 mM (compound 2: 1 mM); read-out: Residual activity
From the text: Figure 4 Effect of modifiers on the degradation of macromolecular substrates. (A) Effect of increasing concentrations of compounds 1 and 2 on the degradation of calf skin collagen. Molecular mass standards are given in kDa and positions of α, β and γ chains of intact collagen are marked by arrows. (B) Effect of modifiers on azocasein degradation. (C) Effect of glycosaminoglycans and clusterin on azocasein degradation. Two different concentrations of each glycosaminoglycan were used in the experiments (10 µg/ml and 200 µg/ml). Error bars in panels B and C represent the SEM of three experiments. All experiments were performed in 100 mM sodium acetate buffer pH 5.50 containing 1 mM EDTA and 5 mM DTT, as described in detail in the Materials and Methods section. Abbreviations: CPD – compound, CS – chondroitin sulfate, DS – dermatan sulfate, HP – heparin.
Azocasein (Sigma-Aldrich, USA) was dissolved in 100 mM sodium acetate buffer pH 5.50 containing 1 mM EDTA and 5 mM DTT at a concentration of 3 mg/ml. Samples were incubated with 0.1 µM cathepsin K for 30 min at 37°C in the presence of each compound. […] Reactions were stopped by addition of trichloroacetic acid (final concentration 5% v/v), centrifuged, clear supernatants mixed with 0.5 M NaOH and the concentrations of solubilized peptides determined by measuring the absorbance at 440 nm. All experiments were performed in triplicates and appropriate blanks were run to take into account the absorption of azocasein and compounds alone. IC 50 values were determined as described previously.

[3] = biological target: T1, Recombinant human cathepsin K; experiment: Thermal stability of cathepsin K at pH 7.4 in the presence of modifiers; type: biochemical
Protocol: Cathepsin K was incubated at 37°C in 50 mM Hepes buffer pH 7.40 containing 1 mM EDTA and 5 mM DTT in the presence or absence of each modifier. The final enzyme concentration was 0.2 µM and final compounds concentrations were 2 mM, except compound 2, which was used at a concentration of 1 mM. All experiments were performed in Eppendorf Protein LoBind Tubes to minimize the adsorption of proteins on tube walls. Aliquots were withdrawn from the reaction mixtures at regular time intervals and their residual activity measured using the substrate Z-FR↓AMC (5 µM final concentration). Inactivation curves had exponential profiles that were fitted with the mathematical model for one-phase exponential decay to determine the half-life of the enzyme in each reaction mixture.

[4] = Solubility in aqueous buffers; type: physicochemical; settings: aqueous buffer, kinetic from dmso stock
Protocol: Recombinant human cathepsin K was prepared as described previously. Chemical probes were obtained from the U.S. NCI/DTP Open Chemical Repository or from ChemBridge (USA). All compounds were soluble in aqueous buffers at concentrations of at least 2 mM, except for compound 2, which was soluble up to a maximal concentration of 1 mM. Stock solutions of all compounds were prepared in DMSO. The fluorogenic substrate Z-FR↓AMC (benzyloxycarbonyl-Phe-Arg-7-amino-4-methylcoumarin) was from Bachem (Switzerland).

## OC(c1cc(-c2ccc(C(F)(F)F)cc2)nc(C(F)(F)F)c1)C1CCCCN1 (stereo not shown) [Compound 2, Piperidin-2-yl-[2-(trifluoromethyl)-6-[4-(trifluoromethyl)phenyl]pyridin-4-yl] methanol]
[1]; at 0.1×Km and 10×Km substrate, modifier 10×KA, calculated with Equation 1 from α and β of Table 3, unmodified enzyme = 1.00
  Z-FRAMC: geometric mean of residual activities (vA): 0.42
[1]; substrate Z-FR↓AMC, pH 5.50, 25°C, 0.5 nM enzyme
  β (coefficient, effect of modifier on the catalytic rate): 0.74±0.13
[1]; substrate Z-FR↓AMC, pH 5.50, 25°C, 0.5 nM enzyme, read-out: K A (equilibrium dissociation constant of the EA complex)
  Kd: 150 ± 50 µM
[2]
  remaining activity: 93 ± 7%
[3]; 37 °C and pH 7.4
  stability: ln(sf), sf = ratio of half-lives in the presence and absence of modifier: 0.79
[3]; pH 7.4, 37°C, versus enzyme only
  Increase of stability (half-life) of cathepsin K: about 2 fold
[4]
  solubility: ≤ 1000 µM
